Biological target: T1, human GPR52 (Homo sapiens, UniProt Q9Y2T5)
T1 construct: expressed in transfected cells; host or cells: CHO(dhfr-) cells
Assay: Increase of intracellular cAMP concentration in human GPR52-expressing CHO cell (AlphaScreen cAMP assay)
Assay type: cell-based
Settings: 1 μM test compound, human GPR52-expressing CHO(dhfr-) cells, 37° C. for 30 min; intracellular cAMP with 1 μM Reference Example 124 = 100%, DMSO = 0%
Method: Increase of Intracellular cAMP Concentration in Human GPR52-Expressing CHO Cell
Using OptiPlate-384 (PerkinElmer Inc.), 1×10^4 human GPR52-expressing CHO(dhfr-) cells were incubated together with 1 μM of a test compound in an assay buffer (30 μL, HBSS (containing Ca^2+ and Mg^2+), 0.5% BSA, 100 μm IBMX, 100 μm Ro20-1724, 5 mM HEPES (pH 7.55)) at 37° C. for 30 min. Thereafter, according to the protocol of AlphaScreen cAMP Assay Kit (PerkinElmer Inc.), the intracellular cAMP concentration was measured by EnVision (PerkinElmer Inc.). The GPR52 agonist activity was calculated, assuming the intracellular cAMP concentration in the presence of 1 μM 3-(6-(2-(3,4-dimethoxyphenyl)ethoxy)pyridin-2-yl)-N-(2-pyrrolidin-1-ylethyl)benzamide (Reference Example 124) to be 100% and assuming the intracellular cAMP concentration when DMSO was added instead of the test compound to be 0%.

T1 sequence (Q9Y2T5 whole entry): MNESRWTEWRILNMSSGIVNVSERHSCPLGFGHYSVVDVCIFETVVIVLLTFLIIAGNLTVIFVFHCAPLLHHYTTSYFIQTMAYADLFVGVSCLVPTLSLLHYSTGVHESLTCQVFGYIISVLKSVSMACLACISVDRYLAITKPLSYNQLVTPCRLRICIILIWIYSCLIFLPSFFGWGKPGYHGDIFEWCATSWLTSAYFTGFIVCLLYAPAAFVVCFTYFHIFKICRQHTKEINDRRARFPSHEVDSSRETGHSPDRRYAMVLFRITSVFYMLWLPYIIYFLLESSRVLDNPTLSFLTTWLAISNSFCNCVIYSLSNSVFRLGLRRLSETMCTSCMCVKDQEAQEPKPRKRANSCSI

SMILES	GPR52 agonist activity (%)
CN(C)CCNC(=O)c1cccc(-c2ccc3c(c2)N(c2ccc(Cl)cc2Cl)CC3)c1 [Example 1, 3-[1-(2,4-dichlorophenyl)-2,3-dihydro-1H-indol-6-yl]-N-[2-(dimethylamino)ethyl]benzamide]	87
N#CCCNC(=O)c1cccc(-c2ccc3c(c2)N(c2ccc(Cl)cc2Cl)CC3)c1 [Example 2, N-(2-cyanoethyl)-3-[1-(2,4-dichlorophenyl)-2,3-dihydro-1H-indol-6-yl]benzamide]	69
O=C(NCCO)c1cccc(-c2ccc3c(c2)N(c2ccc(Cl)cc2Cl)CC3)c1 [Example 3, 3-[1-(2,4-dichlorophenyl)-2,3-dihydro-1H-indol-6-yl]-N-(2-hydroxyethyl)benzamide]	71
N#CCCNC(=O)c1cccc(-c2ccc3c(c2)N(c2cc(Cl)ccc2Cl)CC3)c1 [Example 4, N-(2-cyanoethyl)-3-[1-(2,5-dichlorophenyl)-2,3-dihydro-1H-indol-6-yl]benzamide]	75
O=C(NCCO)c1cccc(-c2ccc3c(c2)N(c2cc(Cl)ccc2Cl)CC3)c1 [Example 5, 3-[1-(2,5-dichlorophenyl)-2,3-dihydro-1H-indol-6-yl]-N-(2-hydroxyethyl)benzamide]	75
N#CCCNC(=O)c1cccc(-c2ccc3c(c2)N(c2ccc(Cl)c(Cl)c2)CC3)c1 [Example 6, N-(2-cyanoethyl)-3-[1-(3,4-dichlorophenyl)-2,3-dihydro-1H-indol-6-yl]benzamide]	59
O=C(NCCO)c1cccc(-c2ccc3c(c2)N(c2ccc(Cl)c(Cl)c2)CC3)c1 [Example 7, 3-[1-(3,4-dichlorophenyl)-2,3-dihydro-1H-indol-6-yl]-N-(2-hydroxyethyl)benzamide]	67
O=C(NCCO)c1cccc(-c2ccc3c(c2)N(c2cc(Cl)cc(Cl)c2)CC3)c1 [Example 9, 3-[1-(3,5-dichlorophenyl)-2,3-dihydro-1H-indol-6-yl]-N-(2-hydroxyethyl)benzamide]	59
N#CCCNC(=O)c1cccc(-c2ccc3c(c2)N(c2cccc(Cl)c2Cl)CC3)c1 [Example 10, N-(2-cyanoethyl)-3-[1-(2,3-dichlorophenyl)-2,3-dihydro-1H-indol-6-yl]benzamide]	65
O=C(NCCO)c1cccc(-c2ccc3c(c2)N(c2cccc(Cl)c2Cl)CC3)c1 [Example 11, 3-[1-(2,3-dichlorophenyl)-2,3-dihydro-1H-indol-6-yl]-N-(2-hydroxyethyl)benzamide]	74
CN(C)CCNC(=O)c1cccc(-c2ccc3c(c2)N(Cc2ccc(Cl)cc2Cl)CC3)c1 [Example 12, 3-[1-(2,4-dichlorobenzyl)-2,3-dihydro-1H-indol-6-yl]-N-[2-(dimethylamino)ethyl]benzamide]	89
N#CCCNC(=O)c1cccc(-c2ccc3c(c2)N(Cc2ccc(Cl)cc2Cl)CC3)c1 [Example 13, N-(2-cyanoethyl)-3-[1-(2,4-dichlorobenzyl)-2,3-dihydro-1H-indol-6-yl]benzamide]	60
N#CCCNC(=O)c1cccc(-c2ccc3c(c2)N(Cc2cc(Cl)cc(Cl)c2)CC3)c1 [Example 15, N-(2-cyanoethyl)-3-[1-(3,5-dichlorobenzyl)-2,3-dihydro-1H-indol-6-yl]benzamide]	77
O=C(NCCO)c1cccc(-c2ccc3c(c2)N(Cc2cc(Cl)cc(Cl)c2)CC3)c1 [Example 16, 3-[1-(3,5-dichlorobenzyl)-2,3-dihydro-1H-indol-6-yl]-N-(2-hydroxyethyl)benzamide]	84

Continued, values first:

GPR52 agonist activity (%)	SMILES
66	N#CCCNC(=O)c1cccc(-c2ccc3c(c2)C(c2ccc(Cl)cc2Cl)CC3)c1 (single isomer, unassigned; (+)) [Example 63, (+)-N-(2-cyanoethyl)-3-[3-(2,4-dichlorophenyl)-2,3-dihydro-1H-inden-5-yl]benzamide]
81	N#CCCNC(=O)c1cccc(-c2ccc3c(c2)C(c2ccc(Cl)cc2Cl)CC3)c1 (single isomer, unassigned; (-)) [Example 62, (−)-N-(2-cyanoethyl)-3-[3-(2,4-dichlorophenyl)-2,3-dihydro-1H-inden-5-yl]benzamide]
80	COc1ccc(CCn2ccc3ccc(-c4cccc(C(=O)NCCN(C)C)c4)nc32)cc1OC [Example 25, 3-[1-[2-(3,4-dimethoxyphenyl)ethyl]-1H-pyrrolo[2,3-b]pyridin-6-yl]-N-[2-(dimethylamino)ethyl]benzamide]
62	COc1ccc(CCn2ccc3ccc(-c4cccc(C(=O)NCCC#N)c4)nc32)cc1OC [Example 26, N-(2-cyanoethyl)-3-[1-[2-(3,4-dimethoxyphenyl)ethyl]-1H-pyrrolo[2,3-b]pyridin-6-yl]benzamide]
64	O=C(NCCO)c1cccc(-c2ccc3ccn(Cc4ccc(Cl)cc4Cl)c3n2)c1 [Example 28, 3-[1-(2,4-dichlorobenzyl)-1H-pyrrolo[2,3-b]pyridin-6-yl]-N-(2-hydroxyethyl)benzamide]
76	O=C(NCCO)c1cccc(-c2ccc3c(n2)N(Cc2ccc(Cl)cc2Cl)CC3)c1 [Example 29, 3-[1-(2,4-dichlorobenzyl)-2,3-dihydro-1H-pyrrolo[2,3-b]pyridin-6-yl]-N-(2-hydroxyethyl)benzamide]
72	N#CCCNC(=O)c1cccc(-c2ccc3c(n2)N(Cc2ccc(Cl)cc2Cl)CC3)c1 [Example 30, N-(2-cyanoethyl)-3-[1-(2,4-dichlorobenzyl)-2,3-dihydro-1H-pyrrolo[2,3-b]pyridin-6-yl]benzamide]
62	O=C(NCCCO)c1cccc(-c2ccc3c(n2)N(Cc2ccc(Cl)cc2Cl)CC3)c1 [Example 31, 3-[1-(2,4-dichlorobenzyl)-2,3-dihydro-1H-pyrrolo[2,3-b]pyridin-6-yl]-N-(3-hydroxypropyl)benzamide]
61	O=C(NCCO)c1cccc(-c2ccc3ccn(-c4ccc(Cl)cc4Cl)c3n2)c1 [Example 33, 3-[1-(2,4-dichlorophenyl)-1H-pyrrolo[2,3-b]pyridin-6-yl]-N-(2-hydroxyethyl)benzamide]
74	N#CCCNC(=O)c1cccc(-c2ccc3c(n2)N(c2ccc(Cl)cc2Cl)CC3)c1 [Example 34, N-(2-cyanoethyl)-3-[1-(2,4-dichlorophenyl)-2,3-dihydro-1H-pyrrolo[2,3-b]pyridin-6-yl]benzamide]
81	O=C(NCCO)c1cccc(-c2ccc3c(n2)N(c2ccc(Cl)cc2Cl)CC3)c1 [Example 35, 3-[1-(2,4-dichlorophenyl)-2,3-dihydro-1H-pyrrolo[2,3-b]pyridin-6-yl]-N-(2-hydroxyethyl)benzamide]
52	N#CCCNC(=O)c1cccc(-c2ncc3ccn(Cc4ccc(Cl)cc4Cl)c3n2)c1 [Example 40, N-(2-cyanoethyl)-3-[7-(2,4-dichlorobenzyl)-7H-pyrrolo[2,3-d]pyrimidin-2-yl]benzamide]
79	COc1ccc(CCn2cnc3ccc(-c4cccc(C(=O)NCCN5CCCC5)c4)nc32)cc1OC [Example 45, 3-[3-[2-(3,4-dimethoxyphenyl)ethyl]-3H-imidazo[4,5-b]pyridin-5-yl]-N-(2-pyrrolidin-1-ylethyl)benzamide]
63	N#CCCNC(=O)c1cccc(-c2ccc3c(c2)N(c2ccc(Cl)cc2Cl)CCO3)c1 [Example 47, N-(2-cyanoethyl)-3-[4-(2,4-dichlorophenyl)-3,4-dihydro-2H-1,4-benzoxazin-6-yl]benzamide]
89	CN(C)CCNC(=O)c1cccc(-c2ccc3c(c2)C(c2cc(Cl)ccc2Cl)CC3)c1 (stereo not shown) [Example 51, 3-[3-(2,5-dichlorophenyl)-2,3-dihydro-1H-inden-5-yl]-N-[2-(dimethylamino)ethyl]benzamide]
84	O=C(NCCO)c1cccc(-c2ccc3c(c2)C(c2ccc(Cl)cc2Cl)CC3)c1 (stereo not shown) [Example 64, 3-[3-(2,4-dichlorophenyl)-2,3-dihydro-1H-inden-5-yl]-N-(2-hydroxyethyl)benzamide]
91	O=C(NC(CO)CO)c1cccc(-c2ccc3c(c2)C(c2ccc(Cl)cc2Cl)CC3)c1 (stereo not shown) [Example 65, 3-[3-(2,4-dichlorophenyl)-2,3-dihydro-1H-inden-5-yl]-N-[2-hydroxy-1-(hydroxymethyl)ethyl]benzamide]
88	C[S+]([O-])CCNC(=O)c1cccc(-c2ccc3c(c2)C(c2ccc(Cl)cc2Cl)CC3)c1 (stereo not shown) [Example 66, 3-[3-(2,4-dichlorophenyl)-2,3-dihydro-1H-inden-5-yl]-N-[2-(methylsulfinyl)ethyl]benzamide]
73	CS(=O)(=O)CCNC(=O)c1cccc(-c2ccc3c(c2)C(c2ccc(Cl)cc2Cl)CC3)c1 (stereo not shown) [Example 67, 3-[3-(2,4-dichlorophenyl)-2,3-dihydro-1H-inden-5-yl]-N-[2-(methylsulfonyl)ethyl]benzamide]
73	N#CCCNC(=O)c1cccc(-c2ccc3c(c2)C(Oc2ccc(Cl)cc2Cl)CC3)c1 (stereo not shown) [Example 73, N-(2-cyanoethyl)-3-[3-(2,4-dichlorophenoxy)-2,3-dihydro-1H-inden-5-yl]benzamide]

Source: patent US20110130384A1, “AMIDE COMPOUND” (TAKEDA PHARMACEUTICAL COMPANY LIMITED, priority 2008, published 2011)
